Source: US4657918A, “3-[6-[3-pyrrolidino-1-(4-tolyl)prop-1e-enyl]-2-pyridyl]propionic acid and derivatives having anti-histaminic activity” (priority 1982, dated 1987)

Tests used:
H1 histamine receptor = molecular target: T1, H1 histamine receptor (Cavia porcellus, UniProt P31389); assay: In vitro antihistaminic activity, isolated guinea-pig ileum longitudinal muscle, histamine concentration-response shift (Schild plot); format: cell-based; conditions: negative log of the molar concentration of antagonist which shifts the histamine concentration-response curve 2X to the right, 1 h incubation, read-out: pA2 (converted)
T1 construct: The longitudinal muscle was isolated from the intact ileum of guinea-pigs; from tissue; host or cells: guinea-pig ileum, longitudinal muscle (Hartly, male 250-400 g)
T1 sequence (P31389 whole entry): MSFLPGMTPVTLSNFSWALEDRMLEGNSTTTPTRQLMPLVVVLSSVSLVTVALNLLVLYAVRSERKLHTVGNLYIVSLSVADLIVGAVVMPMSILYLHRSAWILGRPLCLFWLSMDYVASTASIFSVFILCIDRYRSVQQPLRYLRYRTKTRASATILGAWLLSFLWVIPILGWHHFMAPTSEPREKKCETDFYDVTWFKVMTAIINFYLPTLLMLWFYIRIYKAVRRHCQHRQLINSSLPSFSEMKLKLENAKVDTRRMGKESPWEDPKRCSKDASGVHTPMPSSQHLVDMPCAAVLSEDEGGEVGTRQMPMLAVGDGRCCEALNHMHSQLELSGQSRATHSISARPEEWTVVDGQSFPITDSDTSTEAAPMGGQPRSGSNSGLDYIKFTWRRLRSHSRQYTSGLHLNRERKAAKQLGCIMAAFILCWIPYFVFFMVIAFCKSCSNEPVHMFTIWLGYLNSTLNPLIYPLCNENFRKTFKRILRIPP
Protocol: In vitro antihistiminic activity: The longitudinal muscle was isolated from the intact ileum of guinea-pigs (Hartly, male 250-400 g) and placed in an organ bath under 300 mg tension. After one hour of equilibration, cumulative concentration-response curves (Van Rossum, J. M., Arch. Int. Pharmacodyn. Ther. 143, 299-330, 1963) to histamine were obtained. Following washing, the tissues were incubated for one hour with the test compound and then a second histamine concentration-response curve was run. Shifts to the right of the agonist concentration-response curve produced by the antagonists were used to construct Schild plots (Arunlakshana, O. and Schild, H. O., Br. J. Pharmacol: 14, 48-58, 1959). Regression of Log (dr-1) on Log [B], where dr is an equiactive response in the presence and absence of antagonist and [B] is the molar concentration of antagonist, allowed an estimate of pA2, i.e. the negative log of the concentration of antagonist which shifts the control histamine concentration-response curve 2X to the right.

[1] = background statement; cited from earlier work
[2] = antihistamines now in use; some patients; cited from earlier work

Row | SMILES | Kb (H1 histamine receptor) | other results
1 | Cc1ccc(/C(=C\CN(C)C)c2cccc(/C=C/C(=O)O)n2)cc1 [Compound B, (E)-3-{6-[3-Dimethylamino-1-(4-tolyl)prop-1E-enyl]-2-pyridyl}acrylic acid] | 6.31 nM | 
2 | O=C(O)/C=C/c1cccc(/C(=C/CN2CCCC2)c2ccccc2)n1 [E, (E)-3-[6-(1-phenyl-3-pyrrolidinoprop-1E-enyl)-2-pyridyl]acrylic acid] | 39.8 nM | 
3 | Cc1ccc(/C(=C\CN2CCCC2)c2ccccn2)cc1 [Triprolidine, (E)-1-(4-methylphenyl)-1-(2-pyridyl)-3-pyrrolidinoprop-1-ene] |  | antihistamine potency [1]: one of the most potent antihistamines available
4 | CC(CN1c2ccccc2Sc2ccccc21)N(C)C (centres unmarked) [promethazine] |  | sedation or drowsiness [2]: may cause sedation or drowsiness in some patients

Continued, in another order:

Row | Kb (H1 histamine receptor) | SMILES | other results
5 | 1.26 nM | COc1ccc(/C(=C\CN2CCCC2)c2cccc(/C=C/C(=O)O)n2)cc1 [C, (E)-3-{6-[3-pyrrolidino-1-(4-methoxyphenyl)prop-1E-enyl]-2-pyridyl}acrylicacid] | 
6 | 0.631 nM | Cc1ccc(/C(=C\CN2CCCC2)c2cccc(CCC(=O)O)n2)cc1 [Compound A, 3-{6-[3-Pyrrolidino-1-(4-tolyl)prop-1E-enyl]-2-pyridyl}propionic acid] | 
7 | 1 nM | O=C(O)/C=C/c1cccc(/C(=C/CN2CCCC2)c2ccc(Cl)cc2)n1 [D, (E)-3-{6-[1-(4-chlorophenyl)-3-pyrrolidinoprop-1E-enyl]-2-pyridyl}acrylicacid] | 
8 | 1.26 nM | Cc1ccc(/C(=C\CN2CCCC2)c2cccc(C(=O)O)n2)cc1 [F, 6-[3-pyrrolidino-1-(4-tolyl)prop-1E-enyl]pyridine-2-carboxylic acid] | 
